The results in this text go back to patent publication US7230139B2, “Diterpenoid compounds, compositions thereof and their use as anti-cancer or anti-fungal agents” (priority 2004, dated 2007).

What is called IC50 is the concentration that inhibits the measured activity by half.

Molecules are shown by their SMILES. Where two headings read alike, the source gives them in different places.

The subject of data set [1] is H1299 human non-small cell lung carcinoma. Nature of the data set: Cell viability, cellular ATP levels (Vialight HS). The class given is cell-based. An excerpt:
(§1) The following cell lines were used: A549 human non-small cell lung carcinoma; C33A human cervical carcinoma; H1299 human non-small cell lung carcinoma; Hep-3B human hepatocellular carcinoma; MIA-Paca-2 human pancreatic carcinoma; PC-3 human prostatic adenocarcinoma (American Type Culture Collection, Manassas, Va., USA); HMEC normal human mammary epithelial cells; HUVEC normal human umbilical vein endothelial cells; and NHBE normal human bronchial epithelial cells (Cambrex Bio Science, Rockland, Me., USA). […] HMEC, HUVEC and NHBE cell lines were cultured in MEGM, EGM-2 and BEGM media, respectively (Cambrex Bio Science, Rockland, Me., USA). The cell lines were plated in 96-well microtitre plate at a density of 2–4×10^3 cells per well. After 16 hours, the cells were treated with various concentrations of Compound 50a or Compound 50b. Stock solutions of Compound 50a and Compound 50b, respectively, were prepared in dimethyl sulfoxide at a concentration of 5 mM. Serial dilutions were prepared in RPMI, 10% FBS and 2% DMSO and then added to the cells. The total DMSO in the cell cultures was 1%. […] The IC50s were determined using a best-fit sigmoidal dose response curve with variable slope.
(§2) The selected tumor cell lines included C33A human cervical carcinoma and H1299 human non-small cell lung carcinoma (American Type Culture Collection, Manassas, Va., USA). The cell lines were cultured in RPMI 1640 media supplemented with 10% FBS (Hyclone, Logan, Vt., USA), 100 U/mL penicillin, 100 μg/mL streptomycin and 2 mM L-glutamine (Invitrogen, Carlsbad, Calif., USA). The cell lines were plated in 96-well microtitre plate at a density of 2–4×10^3 cells per well. After 16 hours, the cells were treated with various concentrations of compound 66, 67, 68, 69 and 70, respectively. Stock solutions of compounds 66, 67, 68, 69 and 70 were prepared in dimethyl sulfoxide at a concentration of 5 mM. Serial dilutions were prepared in RPMI, 10% FBS and 2% DMSO and then added to the cells. The total DMSO on the cells was 1%. […] The IC50s were determined using a best-fit sigmoidal dose response curve with variable slope.

Data set [2] has as its system C33A human cervical carcinoma. Put plainly: Cell viability, cellular ATP levels (Vialight HS). The format is cell-based. To be noted: C-33-A, read-out: IC50 C33A.
Text: as §1, §2

Data set [3] is classed as in vivo, CB17 SCID/SCID female mice. The note with it: day 34; i.p. 3.5 mg/kg once every 3 days for fifteen days. The method, then:
C33A cells were transplanted subcutaneously into the flank of female CB17 SCID/SCID mice. Each mouse was inoculated with a suspension of 2×10^6 tumor cells per 100 μL on day zero. The following six treatment groups of ten mice each were used: (a) a negative control group treated with intravenous (i.v.) injection of vehicle, (b) a negative control group treated with intraperitoneal (i.p.) injection of vehicle, (c) a positive control group treated with i.p. injection of Cisplatin, (d) a group treated with i.v. injection of a Compound 50, (e) a group treated with i.p. injection of Compound 50, and (f) a group treated with subcutaneous (s.c.) injection of Compound 50.
Treatment started on day thirteen after C33A cells transplantation for Compound 50 treated groups and on day fourteen for Cisplatin treated group. Compound 50 was administered i.v., i.p., and s.c. once daily for five consecutive days at a dose of 10, 15 and 30 mg/kg, respectively. Compound 50 was prepared as a working solution of 1.5 mg/mL in a vehicle solution of 20% Cremaphor EL (Sigma, St. Louis, Mo., USA), 10% Ethanol and 5% Dextrose (Abbot Laboratories, QC, Canada). The negative control groups were treated with vehicle alone. The positive control group was treated once every 3 days for fifteen days at a dose of 3.5 mg/kg. Cisplatin was formulated in PBS on each day of the injection and was administered i.p.
The mice were weighed and the tumors measured on day 13 and every 2 to 3 days after treatment commenced. Observations continued for 36 days after initial tumor implantation. The changes in body weight and in the calculated tumor volume were plotted (FIGS. 4 and 5). Statistical analysis was performed using GraphPad Prism (GraphPad Software Inc., San Diego, Calif.). Two-way ANOVA was used to determine how the treatment affected tumor growth over time. Following the two-way ANOVA, post-tests were performed using the Benferroni method to determine the statistical difference between the mean tumor-size of the two groups being compared on every day that the tumors were measured. […]

The nature of data set [4]: Body weight of SW480 tumor-bearing mice. The format is in vivo, CB17 SCID/SCID female mice. The note with it: i.v. once daily for five days; 10 mg/kg (50, 50a, 50b), 50 mg/kg (74a). As to the method:
(§3) SW480 cells were transplanted subcutaneously into the flank of female CB 17 SCID/SCID mice. Each mouse was inoculated with a suspension of 1×10^6 tumor cells per 100 μL on day zero. The following five treatment groups of ten mice each were used: (a) a negative control group treated with intravenous (i.v.) injection of vehicle, (b) a group treated with i.v. injection of a Compound 50, (c) a group treated with i.v. injection of a Compound 50a, (d) a group treated with i.v. injection of Compound 50b, (e) a group treated with i.v. injection of Compound 74a.
(§4) Treatment started on day twelve after SW480 cells transplantation and Compounds 50, 50a, 50b and 74a were administered i.v. once daily for five consecutive days at a dose of 10, 10, 10 and 50 mg/kg, respectively. Compound 50, 50a and 50b were prepared as a working solution of 1.5 mg/mL in a vehicle solution of 20% Cremaphor EL (Sigma, St. Louis, Miss., USA), and 10% Ethanol. Compound 74a was prepared as a working solution of 5 mg/mL in a vehicle solution of 5% Dextrose (Abbot Laboratories, QC, Canada). The negative control groups were treated with vehicle solution of 20% Cremaphor EL and 10% Ethanol alone.
(§5) The mice were weighed and the tumors measured on day 12 and every 2 to 3 days after treatment commenced. Observations continued for 23 days after initial tumor implantation. The changes in body weight and in the calculated tumor volume were plotted (FIGS. 9 and 10). Statistical analysis was performed using GraphPad Prism (GraphPad Software Inc., San Diego, Calif.). Two-way ANOVA was used to determine how the treatment affected tumor growth over time. Following the two-way ANOVA, post-tests were performed using the Benferroni method to determine the statistical difference between the mean tumor-size of the two groups being compared on every day that the tumors were measured.

The test system of data set [5] is SW480 human colon carcinoma cancer cells. Nature of the data set: SW480 colon carcinoma xenograft in SCID mice. The class given is in vivo, CB17 SCID/SCID female mice. The note with it: i.v. 50 mg/kg once daily for five days. The method, then: The resultant mice are a model for a human having colon carcinoma cancer.
The SW480 human colon carcinoma cancer cells were maintained in RPMI supplemented with 10% inactivated fetal bovine serum and 1% penicillin-streptomycin-L-Glutamine, under 5% CO2 at 37° C., and passaged twice a week. The cells were grown at a confluency lower than 70% and then collected with Trypsin (Bio-Whittaker, Md., USA). The cells were then centrifuged and washed twice using phosphate buffered saline solution (PBS) and resuspended in PBS at 1×10^6 cells per 100 μl. Viability was examined by staining with Trypan Blue and only flasks with cell viability of greater than 95% were used for in vivo studies.
as §3, §4, §5

Data set [6] relates to H1299 and C33A cancer cells versus HMEC and MRC-5 normal cells. The note with it: 72 h; 1.6 μM Compound 48, 10 μM etoposide, 100 nM staurosporine. The method, then:
H1299 non-small cell lung carcinoma cells, C33A cervical carcinoma cells, Mrc-5 normal lung fibroblasts (American Type Culture Collection, Manassas, Va. USA) and HMEC normal mammary epithelial cells (Clonetics San Diego, Calif., USA) were cultured in RPMI 1640 media supplemented with 10% fetal calf serum (Sigma-Aldrich Inc., St. Louis, Mo. USA). The four cells lines were plated in 96-well microtiter plates (PerkinElmer Life Sciences Inc, Boston, Mass. USA) at a confluency that allowed them to reach confluence after 4 days of growth. One day after plating, the cells were treated either with 10 μM etoposide, 100 nM staurosporine or 1.6 μM of Compound 48. Stock solutions of each compound were prepared in dimethyl sulfoxide (Sigma-Aldrich Inc., St. Louis, Mo. USA), diluted in media then added to the cells. The total dimethyl sulfoxide on the cells was 1%. After 3 days of incubation, the ATP levels in the cells were quantified using the luminescent ViaLight detection system (Bio-Whittaker, Md., USA). The results were plotted relative to untreated control cells, which were set at 100.

Where [7] appears, read: NCI-H1299, Table 6, ATP levels 72 h post-treatment vs untreated cells, read-out: IC50 H1299.
[8] abbreviates: Table 6, ATP levels 72 h post-treatment vs untreated cells.
[9] abbreviates: NCI-H1299, Table 7, cellular ATP levels, read-out: IC50 H1299.
Setting [10] is: NCI-H1299, Table 8, cellular ATP levels, read-out: IC50 H1299.

Take `CCC1(C)C(=O)C=CC2(C)C1=C(O)C(=O)c1ccc(OC)cc12` (stereo not shown) [Compound 66]: the IC50 in data set [1] (setting [7]) was found to be 1440 nM; in data set [2] (setting [8]), 1550 nM.

In data set [3], `N.N.[Cl][Pt][Cl]` [Cisplatin, reference compound] returned a Weight loss of 19%.

Take `COc1ccc2c(c1)C1(C)C=CC(=O)C(C)(C)C1C(=O)C2=O` (stereo not shown) [Compound 70]: the half-maximal inhibitory concentration (IC50) is 16800 nM in data set [1] (setting [7]) and 15900 nM in data set [2] (setting [8]).

Take `CC1(C)C(=O)C=CC2(C)C1=C(O)C(=O)c1ccc(O)cc12` (stereo not shown) [Compound 76]: the IC50 in data set [1] (setting [9]) turned out to be 302 nM; in data set [2] (Table 7, cellular ATP levels) it was 200 nM.

For `CCOP(=O)(OCC)OC1=C2C(C)(C)C(=O)C=CC2(C)c2cc(OC)ccc2C1=O` (stereo not shown) [Compound 72], the IC50 came out at 997 nM in data set [1] (NCI-H1299, read-out: IC50 H1299) and 212 nM in data set [2].

Turning to `COc1ccc2c(c1)C1(C)C(=C(O)C2=O)C(C)(C)C(=O)CC1SCC(NC(C)=O)C(=O)O` (stereo not shown) [Compound 80], the IC50 in data set [1] (setting [10]) worked out at 208 nM; in data set [2] (Table 8, cellular ATP levels) it was 216 nM.

As to `COc1ccc2c(c1)[C@@]1(C)C=CC(=O)C(C)(C)C1=C(OP(=O)(O)O)C2=O` [Compound 74a], the “Change in body weight” value in data set [4] is “non-significant change in body weight”. Besides, the “Tumor growth compared to vehicle” value in data set [5] is reported as “significantly reduction (p<0.001)”.

`COc1cc2c(cc1C)C(=O)C(O)=C1C(C)(C)C(=O)C=CC12C` (stereo not shown) [Compound 48, 10-Hydroxy-6-methoxy-1,1,4a,7-tetramethyl-1H,4aH-phenanthrene-2,9-dione]: the “Selective cytotoxicity towards cancer cells” value in data set [6] is recorded as “selectively cytotoxic towards cancer cells”.

With `COc1ccc2c(c1)C1(C)C(=C(O)C2=O)C(C)(C)C(=O)CC1SCC(NC(=O)CCC(N)C(=O)O)C(=O)NCC(=O)O` (stereo not shown) [Compound 81], the IC50 was 155 nM in data set [1] (setting [10]) and 186 nM in data set [2] (Table 8, cellular ATP levels).

With `COc1cc([C@@H]2c3cc4c(cc3[C@@H](O[C@@H]3O[C@@H]5CO[C@@H](C)O[C@H]5[C@H](O)[C@H]3O)[C@H]3COC(=O)[C@H]23)OCO4)cc(OC)c1O` [etoposide], the “Selective cytotoxicity towards cancer cells” value in data set [6] was “selectively cytotoxic towards cancer cells”.

Turning to `COc1ccc2c(c1)C1(C)C=CC(=O)C(C)(C)C1=C(OP(=O)(OCc1ccccc1)OCc1ccccc1)C2=O` (stereo not shown) [Compound 73], the IC50 worked out at 1540 nM in data set [1] (setting [9]) and 655 nM in data set [2] (Table 7, cellular ATP levels).

Consider `COc1ccc2c(c1)C1(C)C=CC(=O)C(C)(Cc3ccccc3)C1=C(O)C2=O` (stereo not shown) [Compound 68], for which the IC50 in data set [1] (setting [7]) was determined as 2070 nM; in data set [2] (setting [8]), 2530 nM.

For the compound `COC(=O)C1=CC2(C)C(=C(O)C(=O)c3ccc(OC)cc32)C(C)(C)C1=O` (stereo not shown) [Compound 69], the IC50 in data set [1] (setting [7]) turned out to be 1360 nM; in data set [2] (setting [8]) it was 870 nM.

Turning to `C=CCC1(C)C(=O)C=CC2(C)C1=C(O)C(=O)c1ccc(OC)cc12` (stereo not shown) [Compound 67], the IC50 in data set [1] (setting [7]) was found to be 950 nM; in data set [2] (setting [8]), 1190 nM.
